Results from patent US8207172B2 (Bayer Intellectual Property GmbH, priority 2004, dated 2012).

System: A431 cells (human epidermoid carcinoma)
Experiment: In vitro tumor cell proliferation assay (Cell Titer-Glo luminescent cell viability), A431
Assay type: cell-based
Conditions: A-431, 72 h, 72 hours of drug exposure, ATP luminescence readout, read-out: IC50, anti-proliferative activity (inhibition of cell proliferation)
From the text: In vitro Tumor Cell Proliferation Assay
The tumor cell proliferation assay used to test the compounds of the present invention involves a readout called Cell Titer-Glow® Luminescent Cell Viability Assay developed by Promega® (Cunningham, B A “A Growing Issue: Cell Proliferation Assays, Modern kits ease quantification of cell growth” The Scientist 2001, 15(13), 26, and Crouch, S P et al., “The use of ATP bioluminescence as a measure of cell proliferation and cytotoxicity” Journal of Immunological Methods 1993, 160, 81-88), that measures inhibition of cell proliferation. Generation of a luminescent signal corresponds to the amount of ATP present, which is directly proportional to the number of metabolically active (proliferating) cells.
A431cells (human epidermoid carcinoma, ATCC […]) and BT474 (human breast carcinoma, ATCC […]) were plated at a density of 2.5×10^3 cells/well in 96 well black-clear bottom tissue culture plates in RPMI media with 10% Fetal Bovine Serum and incubated at 37° C. Twenty-four hours later, test compounds are added at a final concentration range from as high […] to as low 64 pM depend on the activities of the tested compounds in serial dilutions at a final DMSO concentration of 0.1%. Cells were incubated for 72 hours at 37° C. in complete growth media after addition of the test compound. After 72 hours of drug exposure, the plates were equilibrated to room temperature for approximately 30 min. Then, using a Promega Cell Titer Glo Luminescent® assay kit, lysis buffer containing 100 microliters of the enzyme luciferase and its substrate, luciferin mixture, was added to each well. The plates were mixed for 2 min on orbital shaker to ensure cell lysis and incubated for 10 min at room temperature to stabilize luminescence signal. The samples were read on VICTOR 2 using Luminescence protocol, and analyzed with Analyze5 software to generate IC50 values.

Row | IC50 | SMILES
1 | ≤ 50 µM | CN1CCN(CCn2cc3c(n2)CCc2c-3sc3ncnc(Nc4ccc(Cc5cccnc5)cc4)c23)CC1 [Example 348, 2-[2-(4-methylpiperazin-1-yl)ethyl]-N-[4-(pyridin-3-ylmethyl)phenyl]-4,5-dihydro-2H-pyrimido[5′,4′:4,5]thieno[2,3-e]indazol-6-amine]
2 | ≤ 5 µM | OC[C@@H](O)Cn1cc2c(n1)CCc1c-2sc2ncnc(Nc3ccc(OCc4ccccc4)c(Cl)c3)c12 [Example 357, (2S)-3-(6-{[4-(benzyloxy)-3-chlorophenyl]amino}-4,5-dihydro-2H-pyrimido[5′,4′:4,5]thieno[2,3-e]indazol-2-yl)propane-1,2-diol]
3 | ≤ 5 µM | Fc1ccc(Nc2ncnc3sc4c(c23)CCc2nn(CCN3CCNCC3)cc2-4)cc1Cl [Example 20, N-(3-chloro-4-fluorophenyl)-2-(2-piperazin-1-ylethyl)-4,5-dihydro-2H-pyrimido[5′,4′:4,5]thieno[2,3-e]indazol-6-amine]
4 | ≤ 5 µM | OC[C@@H](O)Cn1cc2c(n1)CCc1c-2sc2ncnc(Nc3ccc(OCc4ccccn4)c(Cl)c3)c12 [Example 351, (2S)-3-(6-{[3-chloro-4-(pyridin-2-ylmethoxy)phenyl]amino}-4,5-dihydro-2H-pyrimido[5′,4′:4,5]thieno[2,3-e]indazol-2-yl)propane-1,2-diol]

Further lines, the compound ahead of its results:

Row | SMILES | IC50
5 | OC[C@H](O)Cn1cc2c(n1)CCc1c-2sc2ncnc(Nc3ccc(OCc4ccccc4)c(Cl)c3)c12 [Example 355, (2R)-3-(6-{[4-(benzyloxy)-3-chlorophenyl]amino}-4,5-dihydro-2H-pyrimido[5′,4′:4,5]thieno[2,3-e]indazol-2-yl)propane-1,2-diol] | ≤ 5 µM
6 | OCC(CO)n1ncc2c1CCc1c-2sc2ncnc(Nc3ccc4c(cnn4Cc4cccc(F)c4)c3)c12 [Example 362, 2-(6-{[1-(3-fluorobenzyl)-1H-indazol-5-yl]-amino}-4,5-dihydro-3H-pyrimido[5′,4′:4,5]thieno[2,3-e]indazol-3-yl)propane-1,3-diol] | ≤ 5 µM
7 | OCC(CO)n1cc2c(n1)CCc1c-2sc2ncnc(Nc3ccc4c(cnn4Cc4cccc(F)c4)c3)c12 [Example 363, 2-(6-{[1-(3-fluorobenzyl)-1H-indazol-5-yl]amino}-4,5-dihydro-2H-pyrimido[5′,4′:4,5]thieno[2,3-e]indazol-2-yl)propane-1,3-diol] | ≤ 5 µM
8 | Fc1cccc(COc2ccc(Nc3ncnc4sc5c(c34)CCc3c-5cnn3CCBr)cc2Cl)c1 [Example 81, 3-(2-bromoethyl)-N-{3-chloro-4-[(3-fluorobenzyl)oxy]phenyl}-4,5-dihydro-3H-pyrimido[5′,4′:4,5]thieno[2,3-e]indazol-6-amine] | ≤ 50 µM
9 | Cc1cccc(COc2ccc(Nc3ncnc4sc5c(c34)CCc3nn(C[C@@H](O)CO)cc3-5)cc2Cl)n1 [Example 352, (2R)-3-[6-({3-chloro-4-[(6-methylpyridin-2-yl)methoxy]phenyl}amino)-4,5-dihydro-2H-pyrimido[5′,4′:4,5]thieno[2,3-e]indazol-2-yl]propane-1,2-diol] | ≤ 50 µM
10 | OC[C@H](O)Cn1cc2c(n1)CCc1c-2sc2ncnc(Nc3ccc4c(cnn4Cc4cccc(F)c4)c3)c12 [Example 354, (2R)-3-(6-{[1-(3-fluorobenzyl)-1H-indazol-5-yl]amino}-4,5-dihydro-2H-pyrimido[5′,4′:4,5]thieno[2,3-e]indazol-2-yl)propane-1,2-diol] | ≤ 5 µM
11 | OC[C@@H](O)Cn1cc2c(n1)CCc1c-2sc2ncnc(Nc3ccc4c(cnn4Cc4cccc(F)c4)c3)c12 [Example 356, (2S)-3-(6-{[1-(3-fluorobenzyl)-1H-indazol-5-yl]amino}-4,5-dihydro-2H-pyrimido[5′,4′:4,5]thieno[2,3-e]indazol-2-yl)propane-1,2-diol] | ≤ 5 µM
12 | OCC(CO)n1ncc2c1CCc1c-2sc2ncnc(Nc3ccc(OCc4cccc(F)c4)c(Cl)c3)c12 [Example 361, 2-[6-({3-chloro-4-[(3-fluorobenzyl)oxy]phenyl}amino)-4,5-dihydro-3H-pyrimido[5′,4′:4,5]thieno[2,3-e]indazol-3-yl)propane-1,3-diol] | ≤ 50 µM
